Results as given in paper PMC8620390, “New Multi-Targeted Antiproliferative Agents: Design and Synthesis of IC261-Based Oxindoles as Potential Tubulin, CK1 and EGFR Inhibitors” (Pharmaceuticals, 2021).

What was measured:
COLO-205 [1] = assay: Two-dose antiproliferative screening, SRB assay, COLO-205; assay type: cell-based, human; details: triplicates; for Growth Inhibition (%) COLO-205 10 μM Average: 72 h; for inhibition at 1 µM / inhibition at 10 µM: Homo sapiens, COLO 205, 72 h; for inhibition at 1 µM: read-out: Growth Inhibition (%) COLO-205 1 μM Average; for inhibition at 10 µM: read-out: Growth Inhibition (%) COLO-205 10 μM Average
Experimental: (§1) MCF-7(breast adenocarcinoma), PC-3 (prostate cancer) and COLO-205 (colorectal cancer) were obtained from Nawah Scientific inc., (Mokatam, Cairo, Egypt). Cells were maintained in Dulbecco’s Modified Eagle’s media (DMEM media) supplemented with […] of streptomycin, 100 units/mL of penicillin and 10% of heat-inactivated fetal bovine serum in humidified, 5% (v/v) CO2 atmosphere at 37 °C.
(§2) Cell viability was assessed by the sulforhodamine B (SRB) assay. Aliquots of cell suspension (5 × 10^3 cells, 100 μL) were transferred into 96 well plates and incubated in complete media for 24 h. Cells were treated with another aliquot media (100 μL) containing compounds 3a–f, 4a–f, 6a–f, 7a–f, 9a–b at concentrations of 1 and 10 μM). After 72 h of drug exposure, cells were fixed by replacing media with trichloroacetic acid (TCA, 10%, 150 μL) and incubated at 4 °C for 1 h. The TCA solution was removed, and the cells were washed five times with distilled water. Aliquots of SRB solution (0.4%w/v, 70 μL) were added and incubated in a dark place at room temperature for 10 min. Plates were washed three times with 1% acetic acid and allowed to air dry overnight. Then, a solution of TRIS base and TRIS HCl (TRIS buffer, 10 mM, 150 μL) was added to dissolve protein bound SRB stain. The absorbance was measured at 540 nm using BMGLABTECH®–FLUOstar omega micro-plate reader (Ortenberg, Germany).

PC-3 = assay: Two-dose antiproliferative screening, SRB assay, PC-3; assay type: cell-based; details: triplicates; for inhibition at 1 µM / inhibition at 10 µM: Homo sapiens, PC-3, 72 h; for inhibition at 1 µM: read-out: Growth Inhibition (%) PC-3 1 μM Average; for inhibition at 10 µM: read-out: Growth Inhibition (%) PC-3 10 μM Average
Experimental: as §1, §2

MCF-7 = assay: Two-dose antiproliferative screening, SRB assay, MCF-7; assay type: cell-based; details: Homo sapiens, MCF7, 72 h, triplicates; for inhibition at 1 µM: read-out: Growth Inhibition (%) MCF-7 1 μM Average; for inhibition at 10 µM: read-out: Growth Inhibition (%) MCF-7 10 μM Average
Experimental: as §1, §2

EGFR = molecular target: T1, EGFR (Homo sapiens, UniProt P00533); assay: EGFR kinase assay kit (Kinase-Glo MAX); assay type: biochemical; details: EGFR-TK kinase kit; read-out: EGFR Inhibition IC50 (converted)
T1 construct: enough purified recombinant EGFR enzyme, EGFR substrate, ATP, and kinase assay buffer; purchased Sigma Aldrich
Experimental: The EGFR Kinase Assay Kit (Sigma Aldrich, St. Louis, […], USA) is designed to measure EGFR Kinase activity for screening and profiling applications using Kinase-Glo® MAX as a detection reagent. The EGFR Kinase Assay Kit (Sigma Aldrich, St. Louis, […], USA) comes in a convenient 96-well format, with enough purified recombinant EGFR enzyme, EGFR substrate, ATP, and kinase assay buffer for 100 enzyme reactions. The master mixture (25 μL per well) was prepared out of Kinase assay buffer (6 μL), ATP (500 μM, 1 μL), PTK substrate (50×, 1 μL) and water (17 μL) and added to each well. Inhibitor solution was made by dissolving 4b in a liquid labelled” inhibitor buffer”. An inhibitor solution (5 μL) was then added to each well, labelled as “Test Inhibitor”. For “Positive Control” and “Blank”, add 5 μL inhibitor buffer). EGFR was thawed on ice. Its tube was spun briefly to recover the full content of the tube. The enzyme was diluted with 1× Kinase assay buffer enzyme to 1 ng/μL. The reaction was initiated by adding 20 μL of diluted EGFR enzyme to the wells designated “Positive Control” and “Test Inhibitor Control”. The plate was incubated at 30 °C for 40 min. After the 40-min reaction, the Kinase-Glo Max (50 μL) reagent was added to each well. The plate was covered with aluminum foil, incubated at room temperature for 15 min and the luminescence was measured using the microplate reader.

CK1 [2] = assay: Casein Kinase 1 (CK1) 33P-ATP assay; assay type: biochemical
Experimental: The active CK1, kinase assay buffer, substrate solution and kinase dilution buffer were thawed on ice (^33P-ATP assay Cocktail). In a precooled microcentrifuge tube, 10 μL of kinase solution, 5 μL of substrate solution and 5 μL of cold water (4 °C) were added, then a blank control was set up. Each reaction was initiated by adding 5 μL of ^33P-ATP assay cocktail then incubated for 15 min in a water bath (30 °C), then 20 μL of the reaction mixture were spotted onto an individually precut strip of phosphocellulose P81 paper and allowed to air dry followed by washing using 1% H2SO4 with constant gentle stirring. A radioactive control was set up then 5 μL of γ-^33P-ATP assay cocktail was spotted on P81 paper, the sample was allowed to air dry for 2 min then the radioactivity count was recorded.

COLO-205 [3] = assay: IC50 against COLO-205, SRB assay; assay type: cell-based; details: Homo sapiens, 0.001–100 μM
Experimental: as §2
The same procedures used to screen two-dose anticancer activities were applied in determining IC50 values against COLO-205 using SRB assay. Cells were maintained at Roswell Park Memorial Institute media (RPMI media). The test was performed using 0.001–100 μM of compounds 4a (IC261), 4b, 4d, 4e, 6e and 6f. IC50 values were calculated using the equation for Boltzman sigmoidal concentration–response curve using the nonlinear regression fitting models by GraphPad, Prism version 5 (GraphPad Software Inc., La Jolla, CA, USA).

CK1 [4] = details: cited from earlier work

T1 sequence (P00533 25-1210): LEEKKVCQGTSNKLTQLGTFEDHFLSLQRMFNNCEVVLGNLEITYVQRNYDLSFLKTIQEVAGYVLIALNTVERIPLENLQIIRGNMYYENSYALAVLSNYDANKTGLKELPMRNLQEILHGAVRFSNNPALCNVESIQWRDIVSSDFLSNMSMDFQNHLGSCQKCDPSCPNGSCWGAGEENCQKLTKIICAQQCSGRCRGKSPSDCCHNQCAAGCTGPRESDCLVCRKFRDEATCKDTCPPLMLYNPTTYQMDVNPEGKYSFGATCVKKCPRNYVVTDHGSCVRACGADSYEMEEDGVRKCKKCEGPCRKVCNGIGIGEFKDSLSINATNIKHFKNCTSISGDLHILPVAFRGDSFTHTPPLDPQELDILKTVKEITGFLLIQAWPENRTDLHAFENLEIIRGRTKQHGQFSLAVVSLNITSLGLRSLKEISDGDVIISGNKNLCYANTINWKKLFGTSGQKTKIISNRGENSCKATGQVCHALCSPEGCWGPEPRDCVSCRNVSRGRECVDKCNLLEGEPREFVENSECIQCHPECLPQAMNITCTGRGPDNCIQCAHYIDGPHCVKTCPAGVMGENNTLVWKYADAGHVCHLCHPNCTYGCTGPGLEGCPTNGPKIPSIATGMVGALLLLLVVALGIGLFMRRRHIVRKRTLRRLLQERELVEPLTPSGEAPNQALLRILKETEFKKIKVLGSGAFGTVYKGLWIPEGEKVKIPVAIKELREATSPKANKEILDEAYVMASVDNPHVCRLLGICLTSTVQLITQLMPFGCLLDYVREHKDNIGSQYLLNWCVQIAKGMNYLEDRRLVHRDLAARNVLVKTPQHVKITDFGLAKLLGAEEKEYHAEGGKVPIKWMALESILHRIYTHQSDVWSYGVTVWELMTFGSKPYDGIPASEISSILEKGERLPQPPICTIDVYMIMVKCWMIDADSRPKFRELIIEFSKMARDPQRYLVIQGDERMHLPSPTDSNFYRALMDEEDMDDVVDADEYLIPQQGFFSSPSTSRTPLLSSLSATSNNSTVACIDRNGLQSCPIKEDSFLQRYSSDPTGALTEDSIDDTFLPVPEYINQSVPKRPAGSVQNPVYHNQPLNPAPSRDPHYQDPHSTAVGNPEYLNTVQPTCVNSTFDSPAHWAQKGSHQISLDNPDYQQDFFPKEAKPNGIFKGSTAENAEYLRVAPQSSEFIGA

| Compound | melting point | IC50 (COLO-205 [3]) | Growth Inhibition (%) COLO-205 10 μM Average (COLO-205 [1]) | inhibition at 1 µM (COLO-205 [1]) | inhibition at 10 µM (COLO-205 [1]) | inhibition at 1 µM (PC-3; 1 μM) | inhibition at 10 µM (PC-3) | inhibition at 1 µM (MCF-7) | inhibition at 10 µM (MCF-7) | IC50 (EGFR) | Growth Inhibition (%) PC-3 1 μM Average (PC-3; 1 μM, 72 h) | Casein Kinase I Inhibition IC50 (CK1 [2]) | fold less potent on CK1 than compound 4b (CK1 [2]; ratio of CK1 IC50 vs 4b) | inhibitory activity against CK1 (CK1 [4]) |
| --- | --- | --- | --- | --- | --- | --- | --- | --- | --- | --- | --- | --- | --- | --- |
| COc1cc(OC)c(/C=C2/C(=O)Nc3ccc(Cl)cc32)c(OC)c1 [Compound 4c, (E)-5-chloro-3-(2,4,6-trimethoxybenzylidene)indolin-2-one] | 244 to 247 °C |  | 58.44% | 2.67% | 58% | 28.9% | 62.2% | 17.9% | 65.1% |  |  |  |  |  |
| COc1cc(OC)c(/C=C2/C(=O)Nc3ccc(OC)cc32)c(OC)c1 [Compound 4e, (E)-5-methoxy-3-(2,4,6-trimethoxybenzylidene)indolin-2-one] | 221 to 223 °C | 300 nM |  | 8.05% | 31.9% | 43% | 63.3% | 34.5% | 68.9% | 1170 nM | 42.36% | 13.08 µg/mL | about 6.8 fold |  |
| Nc1ccc2c(c1)/C(=C1/Nc3ccccc3/C1=N\O)C(=O)N2 [X] |  |  |  |  |  |  |  |  |  |  |  |  |  | 0.13 µM |
| COc1cc(OC)c(/C=C2/C(=O)Nc3ccc(F)cc32)c(OC)c1 [Compound 4d, (E)-5-fluoro-3-(2,4,6-trimethoxybenzylidene)indolin-2-one] | 212 to 215 °C | 1000 nM | 64.01% | 9.69% | 64% | 23.8% | 58% | 10% | 66.1% |  |  |  |  |  |
| COc1cc(/C=C2/C(=O)N(Cc3ccc(Cl)cc3)c3cc(Cl)ccc32)cc(OC)c1OC [Compound 6e, (E)-6-chloro-1-(4-chlorobenzyl)-3-(3,4,5-trimethoxybenzylidene) indolin-2-one] |  | 15300 nM |  | 6.49% | 72.6% | 3.22% | 5.65% | 3.69% | 6% |  |  |  |  |  |
| COc1cc(/C=C2/C(=O)N(Cc3ccc(F)cc3)c3cc(Cl)ccc32)cc(OC)c1OC [Compound 6f, (E)-6-chloro-1-(4-fluorobenzyl)-3-(3,4,5-trimethoxybenzylidene) indolin-2-one] |  | 10600 nM |  | 3.67% | 63.8% | 0.4% | 23.4% | 3.56% | 29.9% |  |  |  |  |  |

Second part, led by results:

| melting point | IC50 (COLO-205 [3]) | Compound | Growth Inhibition (%) COLO-205 10 μM Average (COLO-205 [1]) | inhibition at 1 µM (COLO-205 [1]) | inhibition at 10 µM (COLO-205 [1]) | inhibition at 1 µM (PC-3; 1 μM) | inhibition at 10 µM (PC-3) | inhibition at 1 µM (MCF-7) | inhibition at 10 µM (MCF-7) | IC50 (EGFR) | Growth Inhibition (%) PC-3 1 μM Average (PC-3; 1 μM, 72 h) | Casein Kinase I Inhibition IC50 (CK1 [2]) | fold less potent on CK1 than compound 4b (CK1 [2]; ratio of CK1 IC50 vs 4b) | inhibitory activity against CK1 (CK1 [4]) |
| --- | --- | --- | --- | --- | --- | --- | --- | --- | --- | --- | --- | --- | --- | --- |
| 60 to 62 °C |  | CCOC(=O)CN1C(=O)/C(=C/c2cc(OC)c(OC)c(OC)c2)c2ccc(Cl)cc21 [Compound 9b, Ethyl (E)-2-(6-chloro-2-oxo-3-(3,4,5-trimethoxybenzylidene)indolin-1-yl)acetate] |  | 35.1% | 40.9% | 1.66% | 13.2% | 2.3% | 6.82% |  |  |  |  |  |
| 82 to 85 °C |  | COc1cc(/C=C2/C(=O)N(CC(=O)OC(C)(C)C)c3cc(Cl)ccc32)cc(OC)c1OC [Compound 9a, t-Butyl (E)-2-(6-chloro-2-oxo-3-(3,4,5-trimethoxybenzylidene)indolin-1-yl)acetate] |  | 3.05% | 13% | 1.19% | 5.56% | 2.11% | 7.11% |  |  |  |  |  |
